# Results from ChEMBL document CHEMBL5236631, “Design, synthesis and biological evaluation of novel 3,4-dihydro-2H-[1,4]oxazino [2,3-f]quinazolin derivatives as EGFR-TKIs” (Bioorg Med Chem Lett, 2023).
# What was measured:
# [1] = target: Epidermal growth factor receptor (Homo sapiens, UniProt P00533); assay: Inhibition of wild type EGFR (unknown origin) autophosphorylation by Kinase-Glo luminescent assay
# NCI-H1563 = assay: Antiproliferative activity against human NCI-H1563 cells assessed as inhibition of cell growth; type: functional, cell-based
# NCI-H1975 = assay: Antiproliferative activity against human NCI-H1975 cells harboring T790M mutation assessed as inhibition of cell growth; type: functional, cell-based
# [2] = Cytotoxicity against human 16HBE14o- cells assessed as inhibition of cell growth by MTT assay; type: toxicity, cell-based
# Sequence of Epidermal growth factor receptor (P00533 whole entry): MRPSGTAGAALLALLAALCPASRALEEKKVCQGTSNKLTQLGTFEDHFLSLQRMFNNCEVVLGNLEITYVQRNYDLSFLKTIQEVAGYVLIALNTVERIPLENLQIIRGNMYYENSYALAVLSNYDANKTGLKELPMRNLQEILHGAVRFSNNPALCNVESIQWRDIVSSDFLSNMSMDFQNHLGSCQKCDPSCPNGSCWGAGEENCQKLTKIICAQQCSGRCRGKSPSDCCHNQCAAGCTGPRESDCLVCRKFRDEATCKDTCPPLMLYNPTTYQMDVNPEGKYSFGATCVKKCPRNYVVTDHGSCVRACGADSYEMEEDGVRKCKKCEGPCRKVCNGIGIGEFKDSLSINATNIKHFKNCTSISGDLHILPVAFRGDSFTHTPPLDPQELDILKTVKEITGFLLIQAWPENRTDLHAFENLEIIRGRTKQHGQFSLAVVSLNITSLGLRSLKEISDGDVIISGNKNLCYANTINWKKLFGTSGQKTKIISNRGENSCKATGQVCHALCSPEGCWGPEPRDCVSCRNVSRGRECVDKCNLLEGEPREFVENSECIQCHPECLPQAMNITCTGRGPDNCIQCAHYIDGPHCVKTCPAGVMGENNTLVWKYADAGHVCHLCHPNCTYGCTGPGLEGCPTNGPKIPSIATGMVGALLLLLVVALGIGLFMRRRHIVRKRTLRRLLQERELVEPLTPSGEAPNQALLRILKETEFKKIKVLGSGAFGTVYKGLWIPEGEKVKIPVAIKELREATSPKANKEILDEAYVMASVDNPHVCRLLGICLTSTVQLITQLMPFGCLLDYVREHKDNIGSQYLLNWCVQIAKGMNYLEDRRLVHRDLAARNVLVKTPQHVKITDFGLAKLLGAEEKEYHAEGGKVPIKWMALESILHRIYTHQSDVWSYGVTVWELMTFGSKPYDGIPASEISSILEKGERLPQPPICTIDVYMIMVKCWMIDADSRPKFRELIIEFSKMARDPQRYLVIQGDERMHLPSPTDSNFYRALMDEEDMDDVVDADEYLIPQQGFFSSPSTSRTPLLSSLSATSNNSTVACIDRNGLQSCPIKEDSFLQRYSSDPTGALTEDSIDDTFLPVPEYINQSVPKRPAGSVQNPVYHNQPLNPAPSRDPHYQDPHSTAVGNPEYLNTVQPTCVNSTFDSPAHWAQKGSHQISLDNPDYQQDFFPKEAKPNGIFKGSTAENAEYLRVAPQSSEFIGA
IC50 [1],IC50 (NCI-H1563),IC50 (NCI-H1975),SMILES,CC50 [2]
534 nM,> 40000 nM,> 40000 nM,CC(=O)N1CCOc2c1ccc1ncnc(Nc3cccc(C(F)(F)F)c3)c21,–
87.3 nM,< 1250 nM,1600 nM,Fc1ccc(Nc2ncnc3ccc4c(c23)OCCN4)cc1Cl,130 nM
47.2 nM,> 40000 nM,> 40000 nM,CC(=O)N1CCOc2c1ccc1ncnc(Nc3ccc(F)c(Cl)c3)c21,–
70.3 nM,24800 nM,3600 nM,CCC(=O)N1CCOc2c1ccc1ncnc(Nc3cccc(Br)c3)c21,1250 nM
838 nM,> 40000 nM,> 40000 nM,CCC(=O)N1CCOc2c1ccc1ncnc(Nc3cccc(C(F)(F)F)c3)c21,–
45.6 nM,> 40000 nM,> 40000 nM,CC(=O)N1CCOc2c1ccc1ncnc(Nc3cccc(Br)c3)c21,1400 nM
40.7 nM,12500 nM,4160 nM,CN1CCN(CCC(=O)N2CCOc3c2ccc2ncnc(Nc4cccc(Br)c4)c32)CC1,1350 nM
70.6 nM,> 40000 nM,> 40000 nM,CCC(=O)N1CCOc2c1ccc1ncnc(Nc3ccc(F)c(Cl)c3)c21,–
938 nM,> 40000 nM,4180 nM,FC(F)(F)c1cccc(Nc2ncnc3ccc4c(c23)OCCN4)c1,–
10.3 nM,–,–,COCCOc1cc2ncnc(Nc3cccc(Cl)c3)c2c2c1OC(COC)CO2 (stereo not given),–
25.7 nM,10600 nM,3250 nM,CN1CCN(CCC(=O)N2CCOc3c2ccc2ncnc(Nc4ccc(F)c(Cl)c4)c32)CC1,1240 nM
120 nM,< 1250 nM,15600 nM,Brc1cccc(Nc2ncnc3ccc4c(c23)OCCN4)c1,–
148 nM,21200 nM,4370 nM,CN1CCN(CCC(=O)N2CCOc3c2ccc2ncnc(Nc4cccc(C(F)(F)F)c4)c32)CC1,–
–,8170 nM,4670 nM,C#Cc1cccc(Nc2ncnc3cc(OCCOC)c(OCCOC)cc23)c1 [ERLOTINIB],1320 nM
